Read-outs that look alike come from different tables or passages of the source.
How the values were obtained:
Set-up in all cases: species or system Male Sprague-Dawley rats
isolated rat hearts [1] = experiment: Time to contracture during global ischemia in isolated rat hearts, with isobolographic analysis of the combination; conditions: read-out: EC₅₀ for percentage change in time to contracture
Procedure: (§1) anesthetized using 100 mg/kg sodium pentobarbital (i.p.). They were intubated and then treated with i.v. heparin (1000 U/kg). While mechanically ventilated, hearts were perfused in situ via retrograde cannulation of the aorta. The hearts were then excised and quickly moved to a Langendorff apparatus where they were perfused with Krebs-Henseleit bicarbonate buffer (112 mM sodium chloride, 25 mM sodium bicarbonate, 5 mM potassium chloride, 1.2 mM magnesium sulfate, 1 mM potassium diphosphate, 1.25 mM calcium chloride, 11.5 mM glucose and 2mM pyruvate bubbled with 95% oxygen - 5% carbon dioxide) at a constant perfusion pressure (75 mm Hg). A water-filled latex balloon, attached to a metal cannula, was inserted into the left ventricle and connected to a Statham pressure transducer for measurement of left ventricular pressure. The hearts were allowed to equilibrate for 15 minutes, at which time end diastolic pressure (EDP) was adjusted to 5 mm Hg and the balloon pressure was maintained for the duration of the experiment. Pre-ischemia or pre-drug function, heart rate and coronary flow (extracorporeal electromagnetic flow probe, Carolina Medical Electronics, King, N.C.) were then measured. Cardiac function was determined using double product of heart rate (HR) X left ventricular developed pressure (LVDP) divided by 1000. Cardiac temperature was maintained throughout the experiment by submerging the hearts in a heated chamber filled with 37°C buffer.
All hearts were retreated with vehicle or drug for 10 minutes before the onset of ischemia. All drugs were given only before ischemia. The hearts were subjected to 25 minutes of global ischemia and 30 minutes of reperfusion. At the end of the experiment, EDP and LDH release were measured and used as an index of severity of ischemia.
The effect of the combination of a potassium channel activator and a sulfhydryl containing compound was determined using a technique known as isobolographic analysis (R. J. Tallarida et al, "Minireview-Satistical Analysis of Drug-Drug and Site-Site Interactions with Isobolograms", Life Sciences, 45:947-961, 1989). This technique is commonly used to investigate the interaction between drugs.
Several specific concentration ratios (3:1, 12:1 and 30:1) of cromakalim to zofenopril respectively were tested and the effects of the combination determined. The concentration response curves for cromakalim and zofenopril were expressed as percentage increase in time to contracture from control. Time to contracture was measured as the time during ischemia for end diastolic pressure to increase by 5 mm Hg.
EC₅₀ for percentage change in time to contracture for cromakalim and zofenopril given alone or in the concentration ratios indicated were calculated.

isolated rat hearts [2] = experiment: Global ischemia and reperfusion in isolated perfused (Langendorff) rat hearts: EDP, LDH release, double product
Procedure: as §1, with “The hearts were then excised and quickly moved to a Langendorff apparatus where they were perfused with Krebs-Henseleit bicarbonate buffer (112 mM sodium chloride, 25 mM sodium bicarbonate, 5 mM potassium chloride, 1.2 mM magnesium sulfate, 1 mM potassium diphosphate, 1.25 mM calcium chloride, 11.5 mM glucose and 2mM pyruvate bubbled with 95% oxygen - 5% carbon dioxide) at a constant perfusion pressure (75 mm Hg).” left out, “buffer. All hearts were retreated with vehicle or drug for 10 minutes before the onset of ischemia. All drugs were given only before ischemia. The hearts were subjected to 25 minutes of global ischemia and 30 minutes of reperfusion. At the end of the experiment, EDP and LDH release were measured and used as an index of severity of ischemia.” for “buffer.”

isolated rat hearts [3] = experiment: as above; conditions: 100 or 300 µM N-acetylcysteine; 30 minutes into reperfusion following 35 minutes of global ischemia (Fig. 3a, 3b)
[4] = given alone, time during ischemia for EDP to increase by 5 mm Hg
[5] = blocker (1 µM glyburide or 100 µM sodium 5-hydroxydecanoate) given with zofenopril prodrug (Fig. 1a)
[6] = blocker (1 µM glyburide or 100 µM sodium 5-hydroxydecanoate) given with zofenopril prodrug (Fig. 1b)

Compound: CC1(C)Oc2ccc(C#N)cc2C(N2CCCC2=O)C1O (racemic) [Cromakalim, (±)-6-cyano-3,4-dihydro-2,2-dimethyl-trans-4-(2-oxo-1-pyrrolidyl)-2H-benzo[6]-pyran-3-ol]
- EC50 (isolated rat hearts [1]; concentration ratio 3:1 cromakalim to zofenopril, cromakalim component): 5.15 µM
- EC50 (isolated rat hearts [1]; concentration ratio 12:1 cromakalim to zofenopril, cromakalim component): 5.96 µM
- EC50 (isolated rat hearts [1]; concentration ratio 30:1 cromakalim to zofenopril, cromakalim component): 9.3 µM
- EC50 (isolated rat hearts [1]; [4]): 39.7 µM

Compound: CCCCCC(O)CCCC(=O)[O-].[Na+] (stereo not shown) [sodium-5-hydroxy-decanoate, sodium 5-hydroxydecanoate]
- end diastolic pressure (EDP) (isolated rat hearts [2]; [5]): increase
- cumulative LDH release (isolated rat hearts [2]; [6]): increase

Compound: C[C@H](CS)C(=O)N1C[C@@H](Sc2ccccc2)C[C@H]1C(=O)O [free-SH form of zofenopril]
- cardioprotective effect (EDP and cumulative LDH release) (isolated rat hearts [2]; 400 µM zofenopril-SH, 30 minutes into reperfusion following 25 minutes of global ischemia (Fig. 2a, 2b)): cardioprotective effect

Compound: COc1ccc(Cl)cc1C(=O)NCCc1ccc(S(=O)(=O)NC(=O)NC2CCCCC2)cc1 [Glyburide]
- reversal of the cardioprotective effect of zofenopril-SH (isolated rat hearts [2]; 1 µM glyburide with 400 µM zofenopril-SH (Fig. 2a, 2b)): reverses the cardioprotective effect
- reversal of the protective effect of N-acetylcysteine (isolated rat hearts [2]; 1 µM glyburide with N-acetylcysteine (Fig. 3a, 3b)): reversed
- end diastolic pressure (EDP) (isolated rat hearts [2]; [5]): increase
- cumulative LDH release (isolated rat hearts [2]; [6]): increase
- reversal of the effects of penicillamine on double product and LDH release (isolated rat hearts [2]; glyburide with penicillamine (Fig. 4a, 4b)): partially reversed

Compound: CC(C)(S)[C@@H](N)C(=O)O [Penicillamine]
- protection of cardiac tissue (isolated rat hearts [2]; penicillamine (Fig. 4a, 4b)): protects cardiac tissue
- LDH release (isolated rat hearts [2]; penicillamine (Fig. 4b)): significantly reduced
- reperfusion double product (isolated rat hearts [2]; penicillamine, HR x LVDP divided by 1000 (Fig. 4a)): significantly improved

Compound: C[C@H](CSC(=O)c1ccccc1)C(=O)N1C[C@@H](Sc2ccccc2)C[C@H]1C(=O)O [Zofenopril]
- EC50 (isolated rat hearts [1]; concentration ratio 3:1 cromakalim to zofenopril, zofenopril component): 0.128 µM
- EC50 (isolated rat hearts [1]; concentration ratio 12:1 cromakalim to zofenopril, zofenopril component): 0.48 µM
- EC50 (isolated rat hearts [1]; concentration ratio 30:1 cromakalim to zofenopril, zofenopril component): 0.29 µM
- EC50 (isolated rat hearts [1]; [4]): 75 µM
- end diastolic pressure (EDP) (isolated rat hearts [2]; 100 µM zofenopril, 30 minutes into reperfusion following 25 minutes of global ischemia (Fig. 1a)): significantly reduced
- cumulative LDH release (isolated rat hearts [2]; 100 µM zofenopril, 30 minutes into reperfusion following 25 minutes of global ischemia (Fig. 1b)): significantly reduced

Compound: CC(=O)N[C@@H](CS)C(=O)O [N-acetyl-cysteine, N-acetylcysteine]
- protection of ischemic cardiac tissue (EDP and cumulative LDH release) (isolated rat hearts [3]): protected ischemic cardiac tissue
